ChEMBL document CHEMBL5505985 (Eur J Med Chem, 2024)

Tests used:
RAW264.7 [1] = assay: Cytotoxicity activity mouse RAW264.7 cells assessed as reduction in cell viability at 10 uM incubated for 48 hrs by MTT assay; assay type: toxicity, cell-based; conditions: raw264.7, 48 h
RAW264.7 [2] = assay: Cytotoxicity activity mouse RAW264.7 cells assessed as decrease in survival rate at 50 uM incubated for 48 hrs by MTT assay; assay type: toxicity, cell-based; conditions: raw264.7, 48 h
[3] = biological target: T1, Prostaglandin G/H synthase 2 (Homo sapiens) (UniProt P35354); assay: Inhibition of human recombinant COX-2 using arachidonic acid as substrate at 10 uM pretreated for 5 mins followed by substrate addition and measured after 2 mins by fluorescence based analysis relative to control; conditions: time 7.0 min
T1 sequence (whole entry): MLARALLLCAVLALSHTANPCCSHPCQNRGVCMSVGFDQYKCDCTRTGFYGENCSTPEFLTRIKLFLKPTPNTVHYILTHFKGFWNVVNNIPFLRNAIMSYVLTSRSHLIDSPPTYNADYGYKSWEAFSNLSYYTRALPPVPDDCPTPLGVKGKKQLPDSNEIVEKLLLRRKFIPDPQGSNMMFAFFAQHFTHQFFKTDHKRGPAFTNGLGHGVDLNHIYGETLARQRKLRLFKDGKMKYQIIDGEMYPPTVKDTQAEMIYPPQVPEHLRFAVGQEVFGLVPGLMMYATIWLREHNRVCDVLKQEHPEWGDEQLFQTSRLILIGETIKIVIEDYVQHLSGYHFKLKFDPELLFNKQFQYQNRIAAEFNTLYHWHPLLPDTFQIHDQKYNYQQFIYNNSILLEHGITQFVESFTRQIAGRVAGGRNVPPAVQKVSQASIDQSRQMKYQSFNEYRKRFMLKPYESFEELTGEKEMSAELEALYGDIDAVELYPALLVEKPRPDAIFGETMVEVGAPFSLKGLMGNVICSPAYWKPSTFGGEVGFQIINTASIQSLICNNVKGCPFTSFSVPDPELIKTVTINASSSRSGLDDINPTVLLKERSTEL

inhibition [3] [%]	Compound	Activity (RAW264.7 [1])	Activity (RAW264.7 [2])
	Clc1cccc(Cl)c1Nc1ccccc1Cc1nnc2n1N=C(c1ccc(Br)cc1)CS2	Non-Toxic	
	Clc1cccc(Cl)c1Nc1ccccc1Cc1nnc2n1N=C(c1cccc(Br)c1)CS2	Non-Toxic	Toxic
	Clc1cccc(Cl)c1Nc1ccccc1Cc1nnc(SCc2cccc(Br)c2)o1	Non-Toxic	
	Cc1ccccc1CSc1nnc(Cc2ccccc2Nc2c(Cl)cccc2Cl)o1	Non-Toxic	
	Clc1cccc(Cl)c1Nc1ccccc1Cc1nnc2n1N=C(c1ccccc1Br)CS2	Non-Toxic	
	Clc1cccc(Cl)c1Nc1ccccc1Cc1nnc(SCc2ccc(Br)cc2)o1	Non-Toxic	
	Clc1cccc(Cl)c1Nc1ccccc1Cc1nnc(SCc2ccncc2)o1	Non-Toxic	Toxic
	O=C(Cc1ccccc1Nc1c(Cl)cccc1Cl)NN1C(=O)CCC1=O	Non-Toxic	
	COc1ccc(CSc2nnc(Cc3ccccc3Nc3c(Cl)cccc3Cl)o2)cc1	Non-Toxic	
	O=C(Cc1ccccc1Nc1c(Cl)cccc1Cl)NN1C(=O)c2ccccc2C1=O	Non-Toxic	Toxic
	Clc1ccc(C2=Nn3c(Cc4ccccc4Nc4c(Cl)cccc4Cl)nnc3SC2)cc1	Non-Toxic	Toxic
	Cc1ccc(CSc2nnc(Cc3ccccc3Nc3c(Cl)cccc3Cl)o2)cc1	Non-Toxic	
	Clc1cccc(C2=Nn3c(Cc4ccccc4Nc4c(Cl)cccc4Cl)nnc3SC2)c1	Non-Toxic	Toxic
	Fc1ccc(C2=Nn3c(Cc4ccccc4Nc4c(Cl)cccc4Cl)nnc3SC2)cc1	Non-Toxic	Toxic
	O=[N+]([O-])c1ccc(C2=Nn3c(Cc4ccccc4Nc4c(Cl)cccc4Cl)nnc3SC2)cc1	Non-Toxic	
	Fc1ccc(CSc2nnc(Cc3ccccc3Nc3c(Cl)cccc3Cl)o2)cc1	Non-Toxic	
	Clc1cccc(Cl)c1Nc1ccccc1Cc1nnc(SCC2CCCCC2)o1	Non-Toxic	
	O=[N+]([O-])c1ccccc1C1=Nn2c(Cc3ccccc3Nc3c(Cl)cccc3Cl)nnc2SC1	Non-Toxic	
< 30	Clc1ccccc1CSc1nnc(Cc2ccccc2Nc2c(Cl)cccc2Cl)o1	Non-Toxic	

inhibition [3] [%]	Compound	Activity (RAW264.7 [1])	Activity (RAW264.7 [2])
	N#Cc1ccc(CSc2nnc(Cc3ccccc3Nc3c(Cl)cccc3Cl)o2)cc1	Non-Toxic	
	Fc1ccccc1CSc1nnc(Cc2ccccc2Nc2c(Cl)cccc2Cl)o1	Non-Toxic	
	Fc1cccc(CSc2nnc(Cc3ccccc3Nc3c(Cl)cccc3Cl)o2)c1	Non-Toxic	
	Clc1cccc(Cl)c1Nc1ccccc1Cc1nnc(SC2CCCCC2)o1	Non-Toxic	
	Clc1cccc(Cl)c1Nc1ccccc1Cc1nnc(SCc2ccccc2)o1	Non-Toxic	
< 30	Clc1cccc(CSc2nnc(Cc3ccccc3Nc3c(Cl)cccc3Cl)o2)c1	Non-Toxic	
	CCCSc1nnc(Cc2ccccc2Nc2c(Cl)cccc2Cl)o1	Non-Toxic	
	CSc1nnc(Cc2ccccc2Nc2c(Cl)cccc2Cl)o1	Non-Toxic	
	Cc1cccc(CSc2nnc(Cc3ccccc3Nc3c(Cl)cccc3Cl)o2)c1	Non-Toxic	
	CC(C)Sc1nnc(Cc2ccccc2Nc2c(Cl)cccc2Cl)o1	Non-Toxic	
	Fc1ccc(CSc2nnc(Cc3ccccc3Nc3c(Cl)cccc3Cl)o2)c(F)c1	Non-Toxic	
	CCCCSc1nnc(Cc2ccccc2Nc2c(Cl)cccc2Cl)o1	Non-Toxic	
< 30	Clc1ccc(CSc2nnc(Cc3ccccc3Nc3c(Cl)cccc3Cl)o2)cc1	Non-Toxic	
	COc1cccc(C2=Nn3c(Cc4ccccc4Nc4c(Cl)cccc4Cl)nnc3SC2)c1	Non-Toxic	
	Clc1cccc(Cl)c1Nc1ccccc1Cc1nnc2n1N=C(c1ccccc1)CS2	Non-Toxic	
	Fc1cccc(C2=Nn3c(Cc4ccccc4Nc4c(Cl)cccc4Cl)nnc3SC2)c1	Non-Toxic	
	CCSc1nnc(Cc2ccccc2Nc2c(Cl)cccc2Cl)o1	Non-Toxic	
	COc1ccc(C2=Nn3c(Cc4ccccc4Nc4c(Cl)cccc4Cl)nnc3SC2)cc1	Non-Toxic	
